Patent publication US4762781A, “Antibodies capable of specifically identifying haptenic groups, their preparation and their use and to new antigens permitting their preparation” (priority 1983, dated 1988)
“Also recorded” adds a separate entry of the source. Where two headings read alike, the source gives them in different places.

How the values were obtained:
anti-DA antibodies = assay: Equilibrium dialysis competition, displacement of (3H) DA-G-ALM; format: binding, rabbit; conditions: for affinity constant KA: displacement of (3H) DA-G-ALM from anti-DA antibodies; for affinity constant KA / KA: 1200 min; for KA: conjugates, cross-reactivity with anti-DA antibodies
anti-TA antibodies = assay: Equilibrium dialysis competition, displacement of (3H)-TA-G-ALM; format: binding, rabbit; conditions: for affinity constant KA: displacement of (3H)-TA-G-ALM from anti-TA antibodies; for affinity constant KA / KA: 1200 min; for KA: conjugates, slight immunoreactivity with anti-TA antibodies
anti-GABA antiserum = assay: Equilibrium dialysis competition with tracer (3H) GABA-GA-PPL; format: binding, rabbit; conditions: for cross-reactivity, times less than that of the GABA-GA-PPL conjugate: anti-GABA antiserum
Method: The antibody solution is placed on one side of the membrane. Each conjugate of catecholamine is mixed with an equal volume of radioactive ligand before being placed on the other side of the membrane. The incubation solution of each antiserum is a citrate buffer 0.1M (pH 6.2) containing 1 mg/ml of bovine serum albumin (BSA) and 10 mM of sodium azide (N3 Na). The final volume is 2×150 microliters. This is left to incubate at 4° C. for 20 hours. Next the beta radioactivity in a sample of 100 microliters taken from each side of the membrane is counted.
Studies of specificity were conducted using the method of equilibrium dialysis, by competition of the tracer (^3 H) GABA-GA-PPL and the various conjugated analogues GABA-GA-PPL, glycine-GA-PPL, etc.

GABA antiserum = assay: Immunocytochemical absorption controls of GABA antiserum on rat brain sections; parameters: species or system rabbit; conditions: absorption with a 10^-3 M solution
Method: Rat brains were fixed by perfusion with a 5% solution of glutaraldehyde in a cacodylate buffer, 0.1M, pH 7.5. The brain was cut in slices approximately 4 mm thick and then fixed again for 1.5-2 hours using the same fixative.
Sections of 50 micrometers were incubated with GABA antiserum diluted to 1/1,500. This antiserum was visualized using the peroxidase-antiperoxidasemethod, with diaminobenzidine as the chromogen.

Anti-NA antibodies = format: binding, rabbit
Anti-W antibodies = assay: ELISA competition, affinity and specificity of anti-indolamine antibodies; format: binding, rabbit
Method: This study was performed using an ELISA test (Enzyme-linked immunosorbent assay). The plates were coated with a solution of BSA-G-indolamine conjugate and then saturated with bovine serum. they were then placed in contact with the antibody solution under study, and then with anti-(rabbitgammaglobulin) goat antibodies conjugated with peroxidate of horseradish.

[1] = concentrations between 10^-9 M and 10^-8 M

CNC(=O)[C@H](CCCCNCCCCCNCCc1ccc(O)c(O)c1)NC(C)=O [DA-G-ALM]
displacement of (3H) DA-G-ALM / recognition by anti-DA antibodies (anti-DA antibodies): No displacement
affinity constant KA (anti-DA antibodies): 6.7×10^7 l.mol.^-1
displacement of (3H) DA-G-ALM / recognition by anti-DA antibodies (anti-DA antibodies; listed as DA-b-ALM): best displacement
displacement of (3H)-TA-G-ALM / recognition by anti-TA antibodies (anti-TA antibodies): No displacement; also recorded: no affinity
affinity constant KA (anti-TA antibodies): 2.6×10^4 l.mol.^-1

NCCCC(=O)O [GABA, gamma-aminobutyric acid, reference compound]
displacement of the radioactive ligand (3H) GABA-GA-PPL (anti-GABA antiserum; even at a concentration of 10^-5 M): incapable of displacing
coloration after absorption of the serum (GABA antiserum): very great reduction in coloration

O=C(O)CCCNCCCCCNCCCC[C@H](NC(=O)[C@H](Cc1ccccc1)NC(=O)[C@@H]1CCCN1)C(=O)O [GABA--GA--lysine]
Kd (anti-GABA antiserum; dissociation constant of the anti-GABA antibodies for the antigen): 20 nM

CNC(=O)[C@H](CCCCNCCCCCN[C@@H](Cc1ccc(O)c(O)c1)C(=O)O)NC(C)=O [L-DOPA--G--ALM]
KA (anti-DA antibodies): 3.8 × 10^5 1. mol.^-1
KA (anti-TA antibodies): 3.3 × 10^5 1. mol.^-1

NC[C@H](O)c1ccc(O)c(O)c1 [NA, norepinephrine, reference compound]
displacement (Anti-NA antibodies): no displacement

CNC(=O)[C@H](CCCCNCCCCCNCC(O)c1ccc(O)c(O)c1)NC(C)=O (some centres unmarked) [NA-G-ALM]
reactivity, times lower than that of DA-G-ALM (anti-DA antibodies; anti-DA antibodies): 53 times
affinity constant KA (anti-DA antibodies): 5×10^5 l.mol.^-1
displacement of (3H)-TA-G-ALM / recognition by anti-TA antibodies (anti-TA antibodies): No displacement
affinity constant KA (anti-TA antibodies): 1.4×10^4 l.mol.^-1
displacement (Anti-NA antibodies): best displacement
KA (Anti-NA antibodies; 1200 min): 3.8e+07 L/mol

CNC(=O)[C@H](CCCCNCCCCCNCC(O)c1ccc(O)cc1)NC(C)=O (some centres unmarked) [OA--G--ALM]
KA (anti-DA antibodies): 5 × 10^4 1. mol.^-1
KA (anti-TA antibodies): 5.9 × 10^5 1. mol.^-1

NCCc1ccc(O)cc1 [TA, p-tyramine, reference compound]
displacement of (3H)-TA-G-ALM / recognition by anti-TA antibodies (anti-TA antibodies): incapable of displacing
affinity constant KA (anti-TA antibodies): 10^4 l.mol.^-1

CNC(=O)[C@H](CCCCNCCCCCNCCc1ccc(O)cc1)NC(C)=O [TA-G-ALM]
displacement of (3H) DA-G-ALM / recognition by anti-DA antibodies (anti-DA antibodies): No displacement; also recorded: do not recognize
KA (anti-DA antibodies): 3.1 × 10^4 1. mol.^-1
affinity constant KA (anti-TA antibodies): 7×10^7 l.mol.^-1

N[C@@H](Cc1c[nH]c2ccccc12)C(=O)O [Tryptophane, L-tryptophane]
displacement / identification by anti-W antibodies (Anti-W antibodies): only weakly identified

O=C(O)CC(NCCCCCNCCCC[C@H](NC(=O)[C@H](Cc1ccccc1)NC(=O)[C@@H]1CCCN1)C(=O)O)C(=O)O (some centres unmarked) [aspartate conjugate]
reactivity with anti-GABA antiserum (anti-GABA antiserum; [1]): No reactivity

O=C(O)CCNCCCCCNCCCC[C@H](NC(=O)[C@H](Cc1ccccc1)NC(=O)[C@@H]1CCCN1)C(=O)O [beta-alanine conjugate]
cross-reactivity, times less than that of the GABA-GA-PPL conjugate (anti-GABA antiserum): 175 times

NCCc1ccc(O)c(O)c1 [dopamine, reference compound]
affinity constant KA (anti-DA antibodies): 6.7×10^3 l.mol.^-1
displacement of (3H) DA-G-ALM by unmodified hapten (anti-DA antibodies; even at a concentration of 10^-6 M): not capable of displacing

O=C(O)CCC(NCCCCCNCCCC[C@H](NC(=O)[C@H](Cc1ccccc1)NC(=O)[C@@H]1CCCN1)C(=O)O)C(=O)O (some centres unmarked) [glutamate conjugate]
reactivity with anti-GABA antiserum (anti-GABA antiserum; [1]): No reactivity

O=C(O)CNCCCCCNCCCC[C@H](NC(=O)[C@H](Cc1ccccc1)NC(=O)[C@@H]1CCCN1)C(=O)O [glycine conjugate]
cross-reactivity, times less than that of the GABA-GA-PPL conjugate (anti-GABA antiserum): 795 times

O=C(O)[C@H](CCCCNCCCCCNCCS(=O)(=O)O)NC(=O)[C@H](Cc1ccccc1)NC(=O)[C@@H]1CCCN1 [taurine conjugate]
reactivity with anti-GABA antiserum (anti-GABA antiserum): on the same order or magnitude as with the conjugate of aspartate or glutamate
